Columns and labels:
[1] = target: T1, human cloned CHRM4 receptor (M4_CHO cells) (Homo sapiens, UniProt P08173); experiment: CHRM4 Ca++ Flux Assay (agonist mode, FDSS 7000EX); type: cell-based; conditions: for M4 FDSS PA: Percent Activity; for EC50: geometric mean if tested more than once, read-out: M4 FDSS EC50
T1 construct: expressed in transfected cells; host or cells: CHO-K1
T1 sequence (P08173 1-479): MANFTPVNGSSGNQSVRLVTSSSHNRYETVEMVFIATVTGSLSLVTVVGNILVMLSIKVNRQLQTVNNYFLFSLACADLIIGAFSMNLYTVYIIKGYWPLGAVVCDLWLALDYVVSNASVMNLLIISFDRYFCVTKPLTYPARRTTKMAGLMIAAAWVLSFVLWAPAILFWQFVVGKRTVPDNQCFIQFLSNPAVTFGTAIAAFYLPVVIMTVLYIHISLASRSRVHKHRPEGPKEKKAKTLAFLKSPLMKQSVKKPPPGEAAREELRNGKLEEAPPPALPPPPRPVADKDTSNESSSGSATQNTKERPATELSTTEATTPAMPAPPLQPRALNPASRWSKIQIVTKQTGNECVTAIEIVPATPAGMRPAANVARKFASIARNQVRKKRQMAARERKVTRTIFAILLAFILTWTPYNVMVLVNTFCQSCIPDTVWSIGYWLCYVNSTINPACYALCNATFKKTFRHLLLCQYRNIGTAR
How it was run: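 Agonist-mode response was expressed as percent of the Carbachol EC100 and fitted with four-parameter nonlinear regression over an 11-point triplicate dose series. Intracellular Ca++ was tracked for 3 min by fluorescent dye in CHO-K1 cells stably expressing human CHRM4. Cells were preincubated 60 min with 20 μM ATP in buffer containing 2.5 mM probenecid.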

[2] = target: T2, Cloned human M1 receptor (CHRM1) stably expressed in HEK293 cells (Homo sapiens, UniProt P11229); experiment: CHRM1 Ca++ Flux Assay (agonist mode, FDSS 7000EX); type: cell-based; conditions: for M1 FDSS PA: Percent Activity; for EC50: geometric mean if tested more than once
T2 construct: expressed in transfected cells; host or cells: HEK293
T2 sequence (P11229 1-460): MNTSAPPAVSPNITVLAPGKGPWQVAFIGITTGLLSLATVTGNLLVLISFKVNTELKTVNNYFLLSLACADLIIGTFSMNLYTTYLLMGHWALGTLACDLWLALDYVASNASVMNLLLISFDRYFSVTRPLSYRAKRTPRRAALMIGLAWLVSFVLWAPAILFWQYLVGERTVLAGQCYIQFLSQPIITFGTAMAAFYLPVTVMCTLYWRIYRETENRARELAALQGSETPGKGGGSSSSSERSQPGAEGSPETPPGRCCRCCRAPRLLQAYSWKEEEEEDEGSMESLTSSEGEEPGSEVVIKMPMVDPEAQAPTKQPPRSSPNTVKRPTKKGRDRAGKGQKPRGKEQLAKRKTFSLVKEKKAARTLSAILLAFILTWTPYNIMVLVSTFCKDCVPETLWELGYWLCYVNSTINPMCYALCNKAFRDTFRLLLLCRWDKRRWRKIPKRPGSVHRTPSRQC
How it was run: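 Compounds tested as agonists at 11 concentrations in triplicate, with calcium traces captured over 3 minutes. Cells were HEK293 with stable human CHRM1 expression, plated overnight at 25K/well and loaded with calcium dye. Responses normalized to carbachol EC100 and fitted by four-parameter nonlinear regression.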

Row | SMILES | M4 FDSS PA [1] [%] | EC50 [1] [nM] | M1 FDSS PA [2] [%] | EC50 [2] [nM]
1 | O=C(N1CC2(CC[C@@H](N3CCC(c4cc(F)ccc4OC4CCOCC4)CC3)C2)C1)C1(F)CC1 (single isomer, unassigned) [Example 9D, (R)-(6-(4-(5-fluoro-2-((tetrahydro-2H-pyran-4-yl)oxy)phenyl)piperidin-1-yl)-2-azaspiro[3.4]octan-2-yl)(1-fluorocyclopropyl)methanone or (S)-(6-(4-(5-fluoro-2-((tetrahydro-2H-pyran-4-yl)oxy)phenyl)piperidin-1-yl)-2-azaspiro[3.4]octan-2-yl)(1-fluorocyclopropyl)methanone] | 43 | 75 | 23 | 1770
2 | O=C(N1CC2(CC[C@@H](N3CCC(c4ccccc4OC4CCOCC4)CC3)C2)C1)C1(F)CC1 (single isomer, unassigned) [Example 9E, (R)-(1-fluorocyclopropyl)(6-(4-(2-((tetrahydro-2H-pyran-4-yl)oxy)phenyl)piperidin-1-yl)-2-azaspiro[3.4]octan-2-yl)methanone or (S)-(1-fluorocyclopropyl)(6-(4-(2-((tetrahydro-2H-pyran-4-yl)oxy)phenyl)piperidin-1-yl)-2-azaspiro[3.4]octan-2-yl)methanone] | 55 | 1 | 34 | 120
3 | O=C(N1CC2(CC[C@@H](N3CCC(c4ccccc4OC4CCOCC4)CC3)C2)C1)C1(F)CC1 (single isomer, unassigned) [Example 9F, (R)-(1-fluorocyclopropyl)(6-(4-(2-((tetrahydro-2H-pyran-4-yl)oxy)phenyl)piperidin-1-yl)-2-azaspiro[3.4]octan-2-yl)methanone or (S)-(1-fluorocyclopropyl)(6-(4-(2-((tetrahydro-2H-pyran-4-yl)oxy)phenyl)piperidin-1-yl)-2-azaspiro[3.4]octan-2-yl)methanone] | 47 | 156 | 0 | > 25000
4 | O=C(N1CC2(CC[C@@H](N3CCC(c4ccccc4C4(O)CCOCC4)CC3)C2)C1)C1(F)CC1 (single isomer, unassigned) [Example 9G, (R)-(1-fluorocyclopropyl)(6-(4-(2-(4-hydroxytetrahydro-2H-pyran-4-yl)phenyl)piperidin-1-yl)-2-azaspiro[3.4]octan-2-yl)methanone or (S)-(1-fluorocyclopropyl)(6-(4-(2-(4-hydroxytetrahydro-2H-pyran-4-yl)phenyl)piperidin-1-yl)-2-azaspiro[3.4]octan-2-yl)methanone] | 14 | 76 | 16 | 301
5 | O=C(N1CC2(CC[C@@H](N3CCC(c4ccccc4C4(O)CCOCC4)CC3)C2)C1)C1(F)CC1 (single isomer, unassigned) [Example 9H, (R)-(1-fluorocyclopropyl)(6-(4-(2-(4-hydroxytetrahydro-2H-pyran-4-yl)phenyl)piperidin-1-yl)-2-azaspiro[3.4]octan-2-yl)methanone or (S)-(1-fluorocyclopropyl)(6-(4-(2-(4-hydroxytetrahydro-2H-pyran-4-yl)phenyl)piperidin-1-yl)-2-azaspiro[3.4]octan-2-yl)methanone] | 0 | > 25000 | 0 | > 25000
6 | O=C(N1CC2(CC[C@@H](N3CCC(c4cc(F)ccc4C4(O)CCOCC4)CC3)C2)C1)C1(F)CC1 (single isomer, unassigned) [Example 9I, (R)-(6-(4-(5-fluoro-2-(4-hydroxytetrahydro-2H-pyran-4-yl)phenyl)piperidin-1-yl)-2-azaspiro[3.4]octan-2-yl)(1-fluorocyclopropyl)methanone or (S)-(6-(4-(5-fluoro-2-(4-hydroxytetrahydro-2H-pyran-4-yl)phenyl)piperidin-1-yl)-2-azaspiro[3.4]octan-2-yl)(1-fluorocyclopropyl)methanone] | 17 | 15 | 23 | 92
7 | O=C(N1CC2(CC[C@@H](N3CCC(c4cc(F)ccc4C4(O)CCOCC4)CC3)C2)C1)C1(F)CC1 (single isomer, unassigned) [Example 9J, (R)-(6-(4-(5-fluoro-2-(4-hydroxytetrahydro-2H-pyran-4-yl)phenyl)piperidin-1-yl)-2-azaspiro[3.4]octan-2-yl)(1-fluorocyclopropyl)methanone or (S)-(6-(4-(5-fluoro-2-(4-hydroxytetrahydro-2H-pyran-4-yl)phenyl)piperidin-1-yl)-2-azaspiro[3.4]octan-2-yl)(1-fluorocyclopropyl)methanone] | 1 | 241 | 3 | 2690
8 | O=C(N1CC2(CC[C@@H](N3CCC(c4cc(F)ccc4C4CCOCC4)CC3)C2)C1)C1(F)CC1 (single isomer, unassigned) [Example 9K, (R)-(6-(4-(5-fluoro-2-(tetrahydro-2H-pyran-4-yl)phenyl)piperidin-1-yl)-2-azaspiro[3.4]octan-2-yl)(1-fluorocyclopropyl)methanone or (S)-(6-(4-(5-fluoro-2-(tetrahydro-2H-pyran-4-yl)phenyl)piperidin-1-yl)-2-azaspiro[3.4]octan-2-yl)(1-fluorocyclopropyl)methanone] | 56 | 1 | 58 | 36
9 | O=C(N1CC2(CC[C@@H](N3CCC(c4cc(F)ccc4C4CCOCC4)CC3)C2)C1)C1(F)CC1 (single isomer, unassigned) [Example 9L, (R)-(6-(4-(5-fluoro-2-(tetrahydro-2H-pyran-4-yl)phenyl)piperidin-1-yl)-2-azaspiro[3.4]octan-2-yl)(1-fluorocyclopropyl)methanone or (S)-(6-(4-(5-fluoro-2-(tetrahydro-2H-pyran-4-yl)phenyl)piperidin-1-yl)-2-azaspiro[3.4]octan-2-yl)(1-fluorocyclopropyl)methanone] | 49 | 26 | 31 | 569

Second part, the molecule after the results:

Row | M4 FDSS PA [1] [%] | EC50 [1] [nM] | M1 FDSS PA [2] [%] | EC50 [2] [nM] | SMILES
10 | 60 | 5 | 34 | 1330 | Fc1cncc(N2CC3(CC[C@@H](N4CCC(c5cc(F)ccc5OC5CCOCC5)CC4)C3)C2)c1 (single isomer, unassigned) [Example 10A, (R)-6-(4-(5-fluoro-2-((tetrahydro-2H-pyran-4-yl)oxy)phenyl)piperidin-1-yl)-2-(5-fluoropyridin-3-yl)-2-azaspiro[3.4]octane or (S)-6-(4-(5-fluoro-2-((tetrahydro-2H-pyran-4-yl)oxy)phenyl)piperidin-1-yl)-2-(5-fluoropyridin-3-yl)-2-azaspiro[3.4]octane]
11 | 41 | 45 |  | > 25000 | Fc1cncc(N2CC3(CC[C@@H](N4CCC(c5cc(F)ccc5OC5CCOCC5)CC4)C3)C2)c1 (single isomer, unassigned) [Example 10B, (R)-6-(4-(5-fluoro-2-((tetrahydro-2H-pyran-4-yl)oxy)phenyl)piperidin-1-yl)-2-(5-fluoropyridin-3-yl)-2-azaspiro[3.4]octane or (S)-6-(4-(5-fluoro-2-((tetrahydro-2H-pyran-4-yl)oxy)phenyl)piperidin-1-yl)-2-(5-fluoropyridin-3-yl)-2-azaspiro[3.4]octane]
12 | 62 | < 0.4 | 76 | 80 | Fc1ccc(C2CCOCC2)c(C2CCN([C@@H]3CCC4(C3)CN(c3cncnc3)C4)CC2)c1 (single isomer, unassigned) [Example 10C, (R)-6-(4-(5-fluoro-2-(tetrahydro-2H-pyran-4-yl)phenyl)piperidin-1-yl)-2-(pyrimidin-5-yl)-2-azaspiro[3.4]octane or (S)-6-(4-(5-fluoro-2-(tetrahydro-2H-pyran-4-yl)phenyl)piperidin-1-yl)-2-(pyrimidin-5-yl)-2-azaspiro[3.4]octane]

Reference: patent US12122761B2, “2-azaspiro[3.4]octane derivatives as M4 agonists” (NOVARTIS AG, priority 2019, dated 2024)
